Data set [1] has as its target T1, Stimulator of interferon genes protein (Mus musculus) (UniProt Q3TBT3).
T1 sequence (whole entry): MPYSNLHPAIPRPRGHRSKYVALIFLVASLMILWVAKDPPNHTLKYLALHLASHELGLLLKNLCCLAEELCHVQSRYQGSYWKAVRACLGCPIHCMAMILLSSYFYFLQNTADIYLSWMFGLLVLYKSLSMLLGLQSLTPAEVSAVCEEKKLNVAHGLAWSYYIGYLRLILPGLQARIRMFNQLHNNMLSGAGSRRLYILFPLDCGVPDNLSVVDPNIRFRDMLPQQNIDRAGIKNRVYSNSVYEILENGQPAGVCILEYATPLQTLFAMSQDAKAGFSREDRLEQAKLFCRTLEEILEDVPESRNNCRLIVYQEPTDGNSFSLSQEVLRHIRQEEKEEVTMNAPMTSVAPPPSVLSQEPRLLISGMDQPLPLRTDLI
The data set can be described thus: In vivo inhibition of STING in BALB/c mouse model of LPS induced sepsis assessed as inhibition of upregulation of phosphorylated IRF3 protein expression at 1.25 to 5 mg/kg, IG administered once a day for 3 days followed by LPS stimulation for 12 hrs starting from 2 hrs post last dose by Western blot analysis. It is filed as functional, organism-based. Conditions: dose 1.25-5 mg/kg, time 86.0 hrs. Background: A western blot detects proteins with antibodies after separation by electrophoresis.

Data set [2] has as its system Mus musculus. Put plainly: Protective activity against LPS induced sepsis in BALB/c mouse model of acute liver injury assessed as improvement in congested hepatic sinusoids at 1.25 to 5 mg/kg, IG administered once a day for 3 days followed by LPS stimulation for 12 hrs starting from 2 hrs post last dose by hematoxylin and eosin staining based analysis. It counts as functional, organism-based. Particulars: dose 1.25-5 mg/kg, time 86.0 hrs.

Data set [3] has as its system Mus musculus. The data set can be described thus: Anti-sepsis activity against BALB/c mouse model of LPS induced sepsis assessed as reduction in STING mRNA expression in liver at 1.25 to 5 mg/kg, IG administered once a day for 3 days followed by LPS stimulation for 12 hrs starting from 2 hrs post last dose by qRT-PCR analysis. It counts as functional, organism-based. Particulars: dose 1.25-5 mg/kg, time 86.0 hrs.

A short description of data set [4]: AUC(0 to t) in Sprague-Dawley rat administered intragastrically. It counts as ADME. Details: route ig. Particulars: in vivo, po.
The test system of data set [5] is Mus musculus. The data set can be described thus: Protective activity against LPS induced sepsis in BALB/c mouse model of acute liver injury assessed as improvement of disorderly arranged liver tissue at 1.25 to 5 mg/kg, IG administered once a day for 3 days followed by LPS stimulation for 12 hrs starting from 2 hrs post last dose by hematoxylin and eosin staining based analysis. Particulars: dose 1.25-5 mg/kg, time 86.0 hrs. It is filed as functional, organism-based.

Data set [6] deals with Mus musculus. The data set can be described thus: Anti-sepsis activity against BALB/c mouse model of LPS induced sepsis assessed as reduction in STING protein expression in liver at 1.25 to 5 mg/kg, IG administered once a day for 3 days followed by LPS stimulation for 12 hrs starting from 2 hrs post last dose by Western blot analysis. It counts as functional, organism-based. Conditions: dose 1.25-5 mg/kg, time 86.0 hrs.

A short description of data set [7]: AUC(0 to infinity) in Sprague-Dawley rat administered intragastrically. It is filed as ADME. Details: route ig. Particulars: in vivo, po.
The target in data set [8] is T2, Interferon regulatory factor 3 (Mus musculus) (UniProt P70671).
T2 sequence (whole entry): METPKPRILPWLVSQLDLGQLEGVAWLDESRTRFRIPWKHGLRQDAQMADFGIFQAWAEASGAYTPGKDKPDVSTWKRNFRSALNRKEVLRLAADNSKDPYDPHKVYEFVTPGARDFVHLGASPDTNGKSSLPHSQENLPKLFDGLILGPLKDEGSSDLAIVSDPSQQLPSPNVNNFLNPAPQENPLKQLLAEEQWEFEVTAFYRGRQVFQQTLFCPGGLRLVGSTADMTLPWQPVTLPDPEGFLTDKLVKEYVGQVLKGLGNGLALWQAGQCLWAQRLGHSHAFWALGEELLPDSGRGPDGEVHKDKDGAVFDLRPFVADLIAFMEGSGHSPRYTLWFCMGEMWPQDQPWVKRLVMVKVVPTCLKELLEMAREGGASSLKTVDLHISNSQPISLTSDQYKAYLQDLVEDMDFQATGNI
The data set can be described thus: Inhibition of IRF3 phosphorylation in LPS-induced mouse RAW264.7 cells preincubated with compound for 2 hrs followed by LPS stimulation and measured after 6 hrs by Western blot analysis. It counts as cell-based. Particulars: dose 0.5-2 µM, time 8.0 hrs.

Data set [9] is described as follows: MRT(0 to infinity) in Sprague-Dawley rat administered intragastrically. It counts as ADME. Conditions: in vivo, po, route ig.
For data set [10], the target named is T1, Stimulator of interferon genes protein (Mus musculus). Put plainly: Binding affinity to STING in mouse RAW264.7 cells assessed as thermal stabilization at 40 to 61 degree C at 20 uM incubated for 8 hrs by cellular thermal shift assay. It counts as cell-based.
The subject of data set [11] is RAW264.7. The data set can be described thus: Anti inflammatory activity in LPS-induced mouse RAW264.7 cells assessed as inhibition of NO production at 5 uM preincubated with compound for 2 hrs followed by LPS stimulation and measured after 24 hrs by griess reagent based assay relative to control. It is filed as functional. Particulars: time 26 hrs.
For data set [12], the system named is Mus musculus. Put plainly: Antiinflammatory activity in BALB/c mouse model of LPS induced sepsis assessed as inhibition of IFN-beta production at 1.25 to 5 mg/kg, IG administered once a day for 3 days followed by LPS stimulation for 12 hrs starting from 2 hrs post last dose by qRT-PCR analysis. It counts as functional, organism-based. Conditions: dose 1.25-5 mg/kg, time 86.0 hrs. (In general: Quantitative PCR measures a nucleic acid by following its amplification.)

The target in data set [13] is T1, Stimulator of interferon genes protein (Mus musculus). The data set can be described thus: Binding affinity to STING in mouse RAW264.7 cells assessed as thermal stabilization at 46 degree C measured for 8 hrs by cellular thermal shift assay. It is filed as cell-based. Particulars: dose 0-20 µM.
Data set [14] concerns RAW264.7. The data set can be described thus: Anti inflammatory activity in LPS-induced mouse RAW264.7 cells assessed as suppression of IL-6 levels at 0.5 to 2 uM preincubated with compound for 2 hrs followed by LPS stimulation for 6 hrs by ELISA method. It counts as functional, cell-based. Particulars: dose 0.5-2 µM, time 8.0 hrs.
The target in data set [15] is T1, Stimulator of interferon genes protein (Mus musculus). Put plainly: In vivo inhibition of STING in BALB/c mouse model of LPS induced sepsis assessed as inhibition of upregulation of phosphorylated p65 protein expression at 1.25 to 5 mg/kg, IG administered once a day for 3 days followed by LPS stimulation for 12 hrs starting from 2 hrs post last dose by Western blot analysis. It counts as functional, organism-based. Particulars: dose 1.25-5 mg/kg, time 86.0 hrs.

The test system of data set [16] is RAW264.7. The data set can be described thus: Anti inflammatory activity in LPS-induced mouse RAW264.7 cells assessed as inhibition of NO production preincubated with compound for 2 hrs followed by LPS stimulation and measured after 24 hrs by griess reagent based assay. It counts as functional, cell-based.
Data set [17] is described as follows: MRT (0 to t) in Sprague-Dawley rat administered intragastrically. Conditions: in vivo, po, route ig. It counts as ADME.
Data set [18] is described as follows: Tmax in Sprague-Dawley rat administered intragastrically. It is filed as ADME. Conditions: in vivo, po, route ig.
Data set [19] deals with Mus musculus. Put plainly: Antiinflammatory activity in BALB/c mouse model of LPS induced sepsis assessed as inhibition of IL-6 production at 1.25 to 5 mg/kg, IG administered once a day for 3 days followed by LPS stimulation for 12 hrs starting from 2 hrs post last dose by qRT-PCR analysis. It counts as functional, organism-based. Conditions: dose 1.25-5 mg/kg, time 86.0 hrs.

Data set [20] has as its target T1, Stimulator of interferon genes protein (Mus musculus). The data set can be described thus: In vivo inhibition of STING in BALB/c mouse model of LPS induced sepsis assessed as inhibition of upregulation of phosphorylated TBK1 […] expression at 1.25 to 5 mg/kg, IG administered once a day for 3 days followed by LPS stimulation for 12 hrs starting from 2 hrs post last dose by Western blot analysis. It is filed as functional, organism-based. Conditions: dose 1.25-5 mg/kg, time 86.0 hrs.

The nature of data set [21]: Cytotoxicity against mouse RAW264.7 cells assessed as cell viability at 40 uM measured after 24 hrs by MTT assay relative to control. It counts as toxicity, cell-based. Conditions: read-out: Activity.
The test system of data set [22] is Mus musculus. Put plainly: Protective activity against LPS induced sepsis in BALB/c mouse model of acute liver injury assessed as reduction in ALP level in serum at 1.25 to 5 mg/kg, IG administered once a day for 3 days followed by LPS stimulation for 12 hrs starting from 2 hrs post last dose by ELISA. It is filed as functional, organism-based. Particulars: dose 1.25-5 mg/kg, time 86.0 hrs. For orientation: In an ELISA, binding on a coated surface is turned into a signal by an enzyme label.

This note sets out measurements from ChEMBL document CHEMBL5247586, “Discovery of fusidic acid derivatives as novel STING inhibitors for treatment of sepsis” (Eur J Med Chem, 2022).

SMILES strings stand for the structures. The source made the active and inactive calls. The rule behind the calls is not given here.

By inhibition is commonly meant the share of the control response that was lost under treatment. Usually AUC(0-t) stands for the area under the concentration-time curve up to a stated or last time point. Read a high AUC(0-t) as more exposure. The term AUC(0-inf) denotes total exposure, with the tail of the curve extrapolated. A higher AUC(0-inf) goes with more exposure. The term MRT inf denotes the average time that molecules of a dose stay in the body. One may read the IC50 as the concentration needed to halve the response being measured. Usually MRT last stands for the average time that molecules of a dose stay in the body. As a reminder, the Tmax is the time at which the peak concentration occurs.

Regarding `C=CCONC(=O)CCSSCCC(=O)O[C@@H]1CC[C@@]2(C)[C@@H](CC[C@@]3(C)[C@H]2[C@H](O)C[C@H]2/C(=C(\CCC=C(C)C)C(=O)OCc4ccccc4)[C@@H](OC(C)=O)C[C@@]23C)[C@@H]1C`, the inhibition result in data set [1], in data set [12], in data set [15], in data set [19] and in data set [20] was “Active” in each case. The result in [2], in data set [3], in [5], in data set [6], in [10] and in [14] was Active. In data set [22], the outcome was Active. Besides, in data set [4], the AUC(0-t) came out at 81.1 ng·h/mL. The molecule further registered an AUC(0-inf) in data set [7] of 136 ng·h/mL. Besides, in data set [8], the inhibition result is “Dose-Dependent Effect”. The mean residence time MRT inf in data set [9] amounted to 2.02 h. In addition, in data set [11], the inhibition at 5 µM turned out to be 78.7%. In data set [13], the Activity entry was “Dose-Dependent Effect”. In addition, the half-maximal inhibitory concentration (IC50) in data set [16] was 1150 nM. Further, the MRT last in data set [17] amounted to 0.99 h. For the same molecule, the Tmax in [18] stood at 1 h. The viability at 24 h, 40 µM in data set [21] came out at 91.1%.
